# Measured values published in US20160318866A1, “SUBSTITUTED BIPIPERIDINYL DERIVATIVES” (Bayer Pharma Aktiengesellschaft, priority 2013, published 2016).
# Where a name gives a salt, the structure may show the parent alone.
# Target: T1, human α2C receptor (Homo sapiens, UniProt P18825)
# T1 construct: expressed in transfected cells; host or cells: CHO cells, also recombinantly expressing chimeric G protein Gαqi3 and mitochondrial obelin (mtOb)
# T1 sequence (P18825 1-462): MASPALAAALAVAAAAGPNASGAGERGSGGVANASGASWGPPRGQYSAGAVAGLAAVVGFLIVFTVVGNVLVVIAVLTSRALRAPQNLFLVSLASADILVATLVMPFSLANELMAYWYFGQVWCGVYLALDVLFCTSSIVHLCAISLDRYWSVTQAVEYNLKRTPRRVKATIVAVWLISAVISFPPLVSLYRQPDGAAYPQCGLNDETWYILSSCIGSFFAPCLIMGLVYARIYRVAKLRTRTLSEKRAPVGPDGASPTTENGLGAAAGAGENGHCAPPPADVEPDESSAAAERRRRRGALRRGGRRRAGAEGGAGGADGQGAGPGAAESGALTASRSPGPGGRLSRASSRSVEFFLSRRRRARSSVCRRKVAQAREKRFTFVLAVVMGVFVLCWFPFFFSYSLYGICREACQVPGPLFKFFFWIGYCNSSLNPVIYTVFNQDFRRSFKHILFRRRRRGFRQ
# Test: Antagonism against the adrenoreceptor α2C (luminescence, recombinant CHO cell line)
# Assay type: cell-based
# Conditions: antagonism against adrenoreceptor α2C; noradrenaline 20 nM; tested up to 10 μM; read-out: IC50
# Description: Antagonism against the adrenoreceptor α1A was tested using a recombinant human α1A receptor CHO cell line which additionally also recombinantly expresses mtAeq (mitochondrial aequorin). Antagonism against the adrenoreceptor α2A was tested using a recombinant human α2A-Gα16 receptor fusion protein CHO cell line (PerkinElmer Life Sciences) which additionally also recombinantly expresses mtAeq. Antagonism against the adrenoreceptor α2B was tested using a recombinant human α2B receptor CHO cell line (PerkinElmer Life Sciences) which additionally also recombinantly expresses mtAeq. Antagonism against the adrenoreceptor α2C was tested using a recombinant human α2C receptor CHO cell line which additionally also recombinantly expresses a chimaric G protein (Gαqi3) and mtOb (mitochondrial obelin).
# The cells were cultivated at 37° C. and 5% CO2 in Dulbecco's modified Eagle's Medium/NUT mix F12 with L-glutamine which additionally contains 10% (v/v) inactivated foetal calf serum, 1 mM sodium pyruvate, 0.9 mM sodium bicarbonate, 50 U/ml penicillin, 50 μg/ml streptomycin, 2.5 μg/ml amphotericin B and 1 mg/ml Geneticin. The cells were passaged with enzyme-free Hank's-based cell dissociation buffer. All cell culture reagents used are from Invitrogen (Carlsbad, USA).
# Luminescence measurements were carried out on white 384-well microtitre plates. 2000 cells/well were plated in a volume of 25 μl and cultivated for one day at 30° C. and 5% CO2 in cell culture medium with coelenterazine (α2A and α2B: 5 μg/ml; α1a/c and α2C: 2.5 μg/ml). Serial dilutions of the test substances (10 μl) were added to the cells. After 5 minutes, noradrenalinee was added to the cells (35 μl; final concentrations: 20 nM (α1a/c and α2C) or 200 nM (α2A and α2B)), and the emitted light was measured for 50 seconds using a CCD (charge-coupled device) camera (Hamamatsu Corporation, Shizuoka, Japan) in a light-tight box. The test substances were tested up to a maximum concentration of 10 μM. The IC50 values were calculated from the appropriate dose-response curves.
row,SMILES,IC50
1,"CC1CCCN(C2CCN(C(=O)c3ccc(C(C)(C)CO)cc3)CC2)C1 (stereo not shown) [Example 28, 1-{1-[4-(1-Hydroxy-2-methylpropan-2-yl)benzoyl]piperidin-4-yl}-3-methylpiperidine trifluoroacetic acid salt]",156 nM
2,"CCOC(=O)C1CCCN(C2CCN(C(=O)c3ccc(C(C)(C)C(=O)OCC)cc3)CC2)C1 (stereo not shown) [Example 29, 3-(Ethoxycarbonyl)-1-{1-[4-(1-ethoxy-2-methyl-1-oxopropan-2-yl)benzoyl]piperidin-4-yl}piperidine trifluoroacetic acid salt]",29 nM
3,"CCOC(=O)C1(c2ccc(C(=O)N3CCC(N4CCCC(C)C4)CC3)cc2)CC1 (stereo not shown) [Example 30, 1-(1-{4-[1-(Ethoxycarbonyl)cyclopropyl]benzoyl}piperidin-4-yl)-3-methylpiperidine trifluoroacetic acid salt]",166 nM
4,"CC1CCCN(C2CCN(C(=O)c3ccc(C4(CO)CC4)cc3)CC2)C1 (stereo not shown) [Example 31, 1-(1-{4-[1-(Hydroxymethyl)cyclopropyl]benzoyl}piperidin-4-yl)-3-methylpiperidine trifluoroacetic acid salt]",403 nM
5,"CCOC(=O)c1ccc(C(=O)N2CCC(N3CCCC(C)C3)CC2)cc1 (stereo not shown) [Example 32, 1-{1-[4-(Ethoxycarbonyl)benzoyl]piperidin-4-yl}-3-methylpiperidine trifluoroacetic acid salt]",222 nM
6,"CCOC(=O)Cc1ccc(C(=O)N2CCC(N3CCCC(C)C3)CC2)cc1 (stereo not shown) [Example 33, 1-{1-[4-(2-Ethoxy-2-oxoethyl)benzoyl]piperidin-4-yl}-3-methylpiperidine trifluoroacetic acid salt]",497 nM
7,"CCOC(=O)Cc1ccc(C(=O)N2CCC(N3CCCC(C(=O)OCC)C3)CC2)cc1 (stereo not shown) [Example 34, 3-(Ethoxycarbonyl)-1-{1-[4-(2-ethoxy-2-oxoethyl)benzoyl]piperidin-4-yl}piperidine trifluoroacetic acid salt]",86 nM
8,"CCCCN(C)C(=O)c1ccc(C(=O)N2CCC(N3CCCC(C)C3)CC2)cc1 (stereo not shown) [Example 35, N-Butyl-N-methyl-4-[(3-methyl-1,4′-bipiperidin-1′-yl)carbonyl]benzamide]",124 nM
9,"COCCNC(=O)c1ccc(C(=O)N2CCC(N3CCCC(C)C3)CC2)cc1 (stereo not shown) [Example 36, N-(2-Methoxyethyl)-4-[(3-methyl-1,4′-bipiperidin-1′-yl)carbonyl]benzamide]",479 nM
10,"CCN(CCOC)C(=O)c1ccc(C(=O)N2CCC(N3CCCC(C)C3)CC2)cc1 (stereo not shown) [Example 37, 1-(1-{4-[Ethyl-(2-methoxyethyl)carbamoyl]benzoyl}piperidin-4-yl)-3-methylpiperidine trifluoroacetic acid salt]",406 nM
11,"CC1CCCN(C2CCN(C(=O)c3ccc(C(=O)NC(C)(C)C)cc3)CC2)C1 (stereo not shown) [Example 38, 1-{1-[4-(tert-Butylcarbamoyl)benzoyl]piperidin-4-yl}-3-methylpiperidine trifluoroacetic acid salt]",139 nM
12,"CC1CCCN(C2CCN(C(=O)c3ccc(-c4cnco4)cc3)CC2)C1 (stereo not shown) [Example 39, (3-Methyl-1,4′-bipiperidin-1′-yl) [4-(1,3-oxazol-5-yl)phenyl]methanone]",244 nM
13,"CC(C)(C)c1ccc(C(=O)N2CCC(N3CCCC(OC(=O)N4CCCC4)C3)CC2)cc1 (stereo not shown) [Example 40, 1′-(4-tert-Butylbenzoyl)-1,4′-bipiperidin-3-yl-pyrrolidin-1-carboxylate trifluoroacetic acid salt]",127 nM
14,"COC(=O)C(C)(C)c1ccc(C(=O)N2CCC(N3CCCC(C)C3)CC2)c(F)c1 (stereo not shown) [Example 41, Methyl 2-{3-fluoro-4-[(3-methyl-1,4′-bipiperidin-1′-yl)carbonyl]phenyl}-2-methylpropanoate trifluoroacetic acid salt]",199 nM
15,"CCOC(=O)C1CCCN(C2CCN(C(=O)c3ccc(C(C)(C)OC)cc3)CC2)C1 (stereo not shown) [Example 42, Ethyl 1′-[4-(2-methoxypropan-2-yl)benzoyl]-1,4′-bipiperidine-3-carboxylate]",26 nM
16,"CC(c1ccccc1)N(C)C(=O)c1ccc(C(=O)N2CCC(N3CCC[C@@H](C)C3)CC2)cc1 (stereo partly drawn) [Example 43, N-Methyl-4-{[(3R)-3-methyl-1,4′-bipiperidin-1′-yl]carbonyl}-N-(1-phenylethyl)benzamide]",39 nM

row,SMILES,IC50
1,"CCCC(C)NC(=O)c1ccc(C(=O)N2CCC(N3CCCC(C)C3)CC2)cc1 (stereo not shown) [Example 44, 4-[(3-methyl-1,4′-bipiperidin-1′-yl)carbonyl]-N-(pentan-2-yl)benzamide]",55 nM
2,"CC1CCCN(C2CCN(C(=O)c3ccc(C(=O)NCc4ccncc4)cc3)CC2)C1 (stereo not shown) [Example 45, 4-[(3-methyl-1,4′-bipiperidin-1′-yl)carbonyl]-N-(pyridin-4-yl-methyl) benzamide]",82 nM
3,"CC1CCN(C(=O)c2ccc(C(=O)N3CCC(N4CCCC(C)C4)CC3)cc2)C(C)C1 (stereo not shown) [Example 46, (2,4-dimethylpiperidin-1-yl){4-[(3-methyl-1,4′-bipiperidin-1′-yl)carbonyl]phenyl} methanone]",128 nM
4,"CC1CCCN(C2CCN(C(=O)c3ccc(C(=O)NC(C)C(C)C)cc3)CC2)C1 (stereo not shown) [Example 47, 4-[(3-methyl-1,4′-bipiperidin-1′-yl)carbonyl]-N-(3-methylbutan-2-yl)benzamide]",150 nM
5,"CC(C)CN(C)C(=O)c1ccc(C(=O)N2CCC(N3CCCC(C)C3)CC2)cc1 (stereo not shown) [Example 48, N-methyl-4-[(3-methyl-1,4′-bipiperidin-1′-yl)carbonyl]-N-(2-methylpropyl) benzamide]",199 nM
6,"CC1CCCN(C2CCN(C(=O)c3ccc(C(=O)N(C)C4CCCCC4)cc3)CC2)C1 (stereo not shown) [Example 49, N-cyclohexyl-N-methyl-4-[(3-methyl-1,4′-bipiperidin-1′-yl)carbonyl] benzamide]",348 nM
7,"Cc1cc(CN(C)C(=O)c2ccc(C(=O)N3CCC(N4CCCC(C)C4)CC3)cc2)on1 (stereo not shown) [Example 50, N-methyl-4-[(3-methyl-1,4′-bipiperidin-1′-yl)carbonyl]-N-[(3-methyl-1,2-oxazol-5-yl)methyl]benzamide]",169 nM
8,"CCCN(CC1CC1)C(=O)c1ccc(C(=O)N2CCC(N3CCCC(C)C3)CC2)cc1 (stereo not shown) [Example 51, N-(cyclopropyl-methyl)-4-[(3-methyl-1,4′-bipiperidin-1′-yl)carbonyl]-N-propylbenzamide]",180 nM
9,"CC1CCCN(C2CCN(C(=O)c3ccc(C(=O)N(C)CC4(C)COC4)cc3)CC2)C1 (stereo not shown) [Example 52, N-methyl-4-[(3-methyl-1,4′-bipiperidin-1′-yl)carbonyl]-N-[(3-methyloxetan-3-yl)methyl]benzamide]",182 nM
10,"CC1CCCN(C2CCN(C(=O)c3ccc(C(=O)NC(CO)Cc4ccc(Cl)cc4)cc3)CC2)C1 (stereo not shown) [Example 53, N-[1-(4-chlorophenyl)-3-hydroxypropan-2-yl]-4-[(3-methyl-1,4′-bipiperidin-1′-yl)carbonyl]benzamide]",198 nM
11,"CC1CCCN(C2CCN(C(=O)c3ccc(C(=O)NC(C)Cn4cccn4)cc3)CC2)C1 (stereo not shown) [Example 54, 4-[(3-methyl-1,4′-bipiperidin-1′-yl)carbonyl]-N-[1-(1H-pyrazol-1-yl)propan-2-yl]benzamide]",199 nM
12,"COCC(C)NC(=O)c1ccc(C(=O)N2CCC(N3CCCC(C)C3)CC2)cc1 (stereo not shown) [Example 55, N-(1-methoxypropan-2-yl)-4-[(3-methyl-1,4′-bipiperidin-1′-yl)carbonyl]benzamide]",330 nM
13,"Cc1noc(C)c1NC(=O)c1ccc(C(=O)N2CCC(N3CCCC(C)C3)CC2)cc1 (stereo not shown) [Example 56, N-(3,5-dimethyl-1,2-oxazol-4-yl)-4-[(3-methyl-1,4′-bipiperidin-1′-yl)carbonyl]benzamide]",35 nM
14,"CC1CCCN(C2CCN(C(=O)c3ccc(C4(CN(C)S(C)(=O)=O)CCC4)cc3)CC2)C1 (stereo not shown) [Example 57, N-Methyl-N-[(1-{4-[(3-methyl-1,4′-bipiperidin-1′yl)carbonyl]phenyl}cyclobutyl)methyl]methanesulphonamide]",18 nM
15,"COCC1CCCN(C2CCN(C(=O)c3ccc(C(C)(C)O)cc3)CC2)C1 (stereo not shown) [Example 58, [4-(2-Hydroxypropan-2-yl)phenyl][3-(methoxymethyl)-1,4′-bipiperidin-1′-yl]methanone]",25 nM
